EP0437336B1, “Biophosphoryl hydrazines and their use as pesticides” (priority 1990, dated 1991)
Values after ≈ are worked out from the molar mass of the structure shown. Read-outs that look alike come from different tables or passages of the source.

Legend:
[1] = tested on: southern corn rootworm, Diabrotica undecimpunctata howardi; experiment: Biological Method A: Corn Rootworm Screening Test (treated non-aggressive soil); details: soil concentration giving 90% mortality, 10 days at 27°C
[2] = tested on: southern corn rootworm, Diabrotica undecimpunctata howardi; details: percent control relative to infested check, from root damage ratings; 14 days post-spraying
[3] = tested on: Green Peach Aphid; experiment: Biological Method D: Foliar Insecticidal Activity Test, aphid test; type: in vivo, Myzus persicae; design: key: I = inactive at concentration listed
[4] = tested on: Mexican Bean Beetle; experiment: Biological Method D: Foliar Insecticidal Activity Test, Mexican Bean Beetle test; type: in vivo, Epilachna varivestis; details: Epilachna varivestis
[5] = tested on: Boll Weevil; experiment: Biological Method D: Foliar Insecticidal Activity Test, boll weevil test; type: in vivo, Anthonomous grandis; design: key: I = inactive at concentration listed
[6] = tested on: Two-Spotted Spider Mite; experiment: Biological Method D: Foliar Insecticidal Activity Test, mite test; type: in vivo, Tetranychus urticae; details: for LC50: Tetranychus urticae
[7] = tested on: Southern Armyworm; experiment: Biological Method D: Foliar Insecticidal Activity Test, Southern Armyworm test; type: in vivo, Spodoptera eridania; design: key: I = inactive at concentration listed
[8] = tested on: Green Peach Aphid; experiment: Biological Method D: Foliar Insecticidal Activity Test, aphid test; type: in vivo, Myzus persicae; details: foliar spray; kill after twenty-four hours
Procedure: (§1) Biological Method D: Foliar Insecticidal Activity Test
(§2) In evaluating the foliar insecticidal activity of the compounds of this invention against insects and mites, the following test procedures were employed.
(§3) Not all compounds were tested at each of the several concentrations stated above. Test concentrations of a compound were selected as those most likely to differentiate dose response of a particular compound toward a particular test insect.
(§4) Initial evaluations were made on one or more of the following pests:
For the aphid test, infested broccoli (Brassica oleracea italica var. DiCicco) leaves containing about 50 aphids were placed in a Petri dish lid on a moistened piece of cotton. The leaves were then sprayed to thorough wetness with the test solution using a rotating turntable, held for twenty-four hours and then the percentage killed was determined.
(§5) The mortalities obtained in this manner were plotted on logarithmic probability paper.
(§6) The rotating turntable consists of a fixed, continuously operating spray nozzle under which targets are rotated at a fixed speed and distance. If the target is a Petri dish (such as for the bean beetle, armyworm, mite, or aphid tests), the distance from the nozzle is 38.1 cm (15 inches). If the target is a Mason jar (such as for the boll weevil test), the distance from the nozzle is 17.8 cm (7 inches). The nozzle is located 8 inches from the rotating shaft. The targets on individual platforms revolve around the shaft at 1 revolution per 20 seconds but only a brief portion of this time occurs in the spray path. Targets pass only once under the nozzle and then are removed to drying hoods.
(§7) The nozzle used is a 1/4 JCO Spraying Systems (Wheaton, Illinois) air atomizing nozzle equipped with a No. 2850 fluid cap and a No. 70 air cap. At the 68.95 x 10³ Pa gauge (10 psig) air pressure used and with liquid siphon feed, 1.89 ℓ/hr [0.5 GPH (gallons per hour)] are delivered in a round spray pattern with a 21 degree spray angle. Targets are misted with spray droplets to the point that the droplets coalesce to form a uniform thin film insufficient to drown test organisms.

[9] = tested on: Boll Weevil; experiment: Biological Method D: Foliar Insecticidal Activity Test, boll weevil test; type: in vivo, Anthonomous grandis; details: spray into jar
[10] = tested on: southern corn rootworm, Diabrotica undecimpunctata howardi; details: at-planting soil application
[11] = tested on: Southern Armyworm; experiment: Biological Method D: Foliar Insecticidal Activity Test, Southern Armyworm test; type: in vivo, Spodoptera eridania; details: foliar spray; for AW 48 hrs LC50: 48 hours after treatment; for AW 96 hrs LC50: 96 hours after treatment
Procedure: as §1, §2, §3, §4
For the Mexican Bean Beetle and Southern armyworm tests, individual lima bean (Phaseolus limeniss var. Woods' Prolific) leaves were placed on moistened pieces of filter paper in Petri dishes. The leaves were then sprayed with the test solution using a rotating turntable and allowed to dry. The dishes were then infested with 10 third instar larvae of either the Mexican Been Beetle or the Southern Armyworm. The dishes were then covered. Percent mortality was determined for each species and spray concentration at 48 and 96 hours after treatment.
as §5, §6, §7

[12] = Method D foliar test, Two-Spotted Spider Mite, read-out: LC50 TSM
[13] = foliar spray, 48 hours after treatment, read-out: BB 48 hrs. LC50
[14] = foliar spray, 96 hours after treatment, read-out: BB 96 hrs LC50
[15] = 24 h, foliar spray, kill after twenty-four hours, read-out: TSM LC50
[16] = foliar spray, kill after twenty-four hours

Row | Structure (SMILES) | primary nonagressive Method A crw LC90 [1] [ppm] | foliar systemic nonagressive Method B crw % control at 0.56 kg/ha (0.5 lb/acre) [2] [%] | LC50 GPA [3] | LC50 ([4]; Method D foliar test, Mexican Bean Beetle, 48 hrs, read-out: LC50 BB 48 hrs.) [µg/mL] | LC50 BW 48 hrs [5] | LC50 BW 96 hrs [5] | LC50 [6, 12] [µg/mL] | LC50 AW 48 hrs [7] | LC50 AW 96 hrs [7] | GPA LC50 [8] | BW 48 hrs LC50 [9] | BW 96 hrs LC50 [9] | secondary aggressive Method C crw LC50 ([10]; rated 17 days post-infestation) [kg/ha] | secondary aggressive Method C crw LC50 ([10]; value in brackets) [lb/acre] | LC50 [4, 13] [µg/mL] | LC50 [4, 14] [µg/mL] | LC50 [6, 15] [µg/mL] | AW 48 hrs LC50 [11] | AW 96 hrs LC50 [11] | TSM LC50 [6, 16]
1 | CCOP(=S)(NNP(=S)(OCC)OC(C)C)OCC (centres unmarked) [Compound 5] | <0.1 | 69 | I | 740 (≈ 2110 µM) | I | I | 150 (≈ 428 µM) | I | I | – | – | – | – | – | – | – | – | – | – | –
2 | CCOP(=S)(NNP(=S)(OCC)OC(C)CC)OC(C)CC (centres unmarked) [Compound 65, N-(O-ethyl O-secbutylthiophosphoryl) N′-(O-ethyl O-secbutylthiophosphoryl) hydrazine, reference compound] | 0.09 | – | – | – | – | – | – | – | – | I | I | I | 0.44 | 0.39 | 360 (≈ 917 µM) | 62 (≈ 158 µM) | 245 (≈ 624 µM) | I | I | –
3 | CCCCOP(=S)(NNP(=S)(OCC)OCC)OCC (centres unmarked) [Compound 7] | 0.25 | 38 | I | – | I | I | 150 (≈ 412 µM) | I | I | – | – | – | – | – | – | – | – | – | – | –
4 | CCCOP(=S)(NNP(=S)(OCC)OC(C)(C(F)(F)F)C(F)(F)F)OCC (centres unmarked) [Compound 70] | 1.1 | – | – | – | – | – | – | – | – | I | I | I | – | – | 500 (≈ 1030 µM) | 45 (≈ 92.5 µM) | – | I | I | I
5 | CCOP(=S)(NNP(=S)(OCC)N(C)CC)OCC (centres unmarked) [Compound 75] | 1.1 | – | – | – | – | – | – | – | – | I | I | I | – | – | 500 (≈ 1430 µM) | 150 (≈ 429 µM) | 150 (≈ 429 µM) | I | I | –
6 | CCOP(=S)(NNP(=S)(OCC)OC(C)C)OC(C)C (centres unmarked) [Compound 67, reference compound] | 0.09 | – | – | – | – | – | – | – | – | I | I | I | – | – | 150 (≈ 412 µM) | 62 (≈ 170 µM) | 150 (≈ 412 µM) | I | I | –
7 | CCOP(=S)(NCC(C)C)NNP(=S)(OCC)OCC (centres unmarked) [Compound 71] | 1.1 | – | – | – | – | – | – | – | – | I | I | I | – | – | 150 (≈ 413 µM) | 150 (≈ 413 µM) | – | I | I | I
8 | CCCOP(=S)(NNP(=S)(NCC(C)C)OCC)OCCC (centres unmarked) [Compound 81] | 1.1 | – | – | – | – | – | – | – | – | I | I | I | – | – | 500 (≈ 1280 µM) | 740 (≈ 1890 µM) | – | I | I | I
9 | CCCCCCOP(=S)(NNP(=S)(OCC)OCC)OCC (centres unmarked) [Compound 77] | 1.1 | – | – | – | – | – | – | – | – | I | I | I | – | – | 150 (≈ 382 µM) | 150 (≈ 382 µM) | – | I | I | I
10 | CCCCCOP(=S)(NNP(=S)(OCC)OCC)OCC (centres unmarked) [Compound 63] | 1.1 | – | – | – | – | – | – | – | – | I | I | 740 ppm | – | – | – | 740 (≈ 1960 µM) | – | I | I | I
11 | CCOP(=S)(NNP(=S)(OCC)OCC(C)C)OCC(C)C (centres unmarked) [Compound 66, reference compound] | 0.09 | – | – | – | – | – | – | – | – | I | I | I | ~1.91 | ~1.7 | – | 150 (≈ 382 µM) | – | I | I | I
12 | CCCCNP(=S)(NNP(=S)(OCC)OCC)OCC (centres unmarked) [Compound 74] | 1.1 | – | – | – | – | – | – | – | – | I | I | I | 1.03 | 0.92 | 740 (≈ 2040 µM) | 380 (≈ 1050 µM) | – | I | I | I
13 | CCCOP(=S)(NNP(=S)(OCC)OC(C)C)OCCC (centres unmarked) [Compound 82] | 0.7 | – | – | – | – | – | – | – | – | I | – | – | 0.95 | 0.85 | 500 (≈ 1320 µM) | 150 (≈ 396 µM) | – | I | – | I
14 | CCCOP(=S)(NNP(=S)(OCC)N1CCCCC1)OCCC (centres unmarked) [Compound 64] | 8.6 | – | – | – | – | – | – | – | – | I | I | I | – | – | 740 (≈ 1830 µM) | 740 (≈ 1830 µM) | – | I | I | I
